# Reference: patent US20110070232A1, “Combination Therapy with an Antitumor Alkaloid” (Pharma Mar, S.A., priority 2008, published 2011)
# Like-named read-outs stand apart in the source and are kept apart here.
# Experiments:
# BxPC-3 tumors = type: in vivo, mice; conditions: mg/kg/day: PM00104 0.90 IV
# Experimental: Female CB17.SCID mice (Charles River Lab.) were utilized for all experiments. Animals were housed in ventilated rack caging with food and water ad libitum. The mice were acclimated for at least 5 days prior to tumor implantation with a tumor cell suspension.
# The tumor model used in these studies was BxPC-3 cell line, which was obtained from the ATCC (Manassas, Va.).
# Treatments were initiated on DPI 9.
# (§1) Tumor size measurements were recorded twice weekly from the treatment initiation until the termination of the study.
# (§2) Mean, standard deviation and standard error of the mean were determined for tumor volume for all animal groups at all assessments. Student's t test was performed on tumor volumes at each measurement day, including at the end of the study, to determine whether there were any statistically significant differences between combination treatment groups and single monotherapy treatment groups.
# Hs746T tumors = type: in vivo, mice
# Text: Female athymic nude mice (Harlan Sprague Dawley, Madison, Wis.) were utilized for all experiments. Animals were housed in ventilated rack caging with food and water ad libitum. The mice were acclimated for at least 5 days prior to tumor implantation with a tumor cell suspension.
# The tumor model used in these studies was Hs746T cell line, which was obtained from the ATCC (Manassas, Va.).
# Treatments were initiated on DPI 15.
# 5-FU was provided as a solution which was further diluted with water for injection.
# as §1, §2
# [1] = PM00104 0.9, 5-FU 50 (DPI 15) then 100 (DPI 22 & 29), irinotecan 20, doxorubicin 6 mg/kg/day
smiles,measurement,setting,value
COc1c(C)cc2c(c1O)[C@@H]1[C@@H]3Cc4c(OC(C)=O)c(C)c5c(c4[C@H](CNC(=O)/C=C/c4cccc(C(F)(F)F)c4)N3[C@@H](O)[C@H](C2)N1C)OCO5 [PM00104],% Inhibition,"BxPC-3 tumors; day 9, erlotinib 15 PO",−3.8%
same,% Inhibition,"BxPC-3 tumors; day 9, erlotinib 30 PO",−3.8%
same,% Inhibition,"BxPC-3 tumors; day 9, erlotinib 50 PO",−3.8%
same,% T/C on day,"BxPC-3 tumors; day 9, erlotinib 50 PO",103.8%
same,% Inhibition,"BxPC-3 tumors; day 12, erlotinib 15 PO",10.0%
same,% Inhibition,"BxPC-3 tumors; day 12, erlotinib 30 PO",10.0%
same,% Inhibition,"BxPC-3 tumors; day 12, erlotinib 50 PO",10.0%
same,% T/C on day,"BxPC-3 tumors; day 12, erlotinib 50 PO",90.0%
same,% Inhibition,"BxPC-3 tumors; day 15, erlotinib 15 PO",−20.0%
same,% Inhibition,"BxPC-3 tumors; day 15, erlotinib 30 PO",−20.0%
same,% Inhibition,"BxPC-3 tumors; day 15, erlotinib 50 PO",−20.0%
same,% T/C on day,"BxPC-3 tumors; day 15, erlotinib 50 PO",120.0%
same,% Inhibition,"BxPC-3 tumors; day 19, erlotinib 15 PO",1.4%
same,% Inhibition,"BxPC-3 tumors; day 19, erlotinib 30 PO",1.4%
same,% Inhibition,"BxPC-3 tumors; day 19, erlotinib 50 PO",1.4%
same,% T/C on day,"BxPC-3 tumors; day 19, erlotinib 50 PO",98.6%
same,% Inhibition,"BxPC-3 tumors; day 21, erlotinib 15 PO",30.1%
same,% Inhibition,"BxPC-3 tumors; day 21, erlotinib 30 PO",30.1%
same,% Inhibition,"BxPC-3 tumors; day 21, erlotinib 50 PO",30.1%
same,% T/C on day,"BxPC-3 tumors; day 21, erlotinib 50 PO",69.9%
same,% Inhibition,"BxPC-3 tumors; day 26, erlotinib 15 PO",17.4%
same,% Inhibition,"BxPC-3 tumors; day 26, erlotinib 30 PO",17.4%
same,% Inhibition,"BxPC-3 tumors; day 26, erlotinib 50 PO",17.4%
same,% T/C on day,"BxPC-3 tumors; day 26, erlotinib 50 PO",82.6%
same,% Inhibition,"BxPC-3 tumors; day 29, erlotinib 15 PO",30.6%
same,% Inhibition,"BxPC-3 tumors; day 29, erlotinib 30 PO",30.6%
same,% Inhibition,"BxPC-3 tumors; day 29, erlotinib 50 PO",30.6%
same,% T/C on day,"BxPC-3 tumors; day 29, erlotinib 50 PO",69.4%
same,% Inhibition,"BxPC-3 tumors; day 33, erlotinib 15 PO",17.8%
same,% Inhibition,"BxPC-3 tumors; day 33, erlotinib 30 PO",17.8%
same,% Inhibition,"BxPC-3 tumors; day 33, erlotinib 50 PO",17.8%
same,% T/C on day,"BxPC-3 tumors; day 33, erlotinib 50 PO",82.2%
same,% Inhibition,"BxPC-3 tumors; day 40, erlotinib 15 PO",14.2%
same,% Inhibition,"BxPC-3 tumors; day 40, erlotinib 30 PO",14.2%
same,% Inhibition,"BxPC-3 tumors; day 40, erlotinib 50 PO",14.2%
same,% T/C on day,"BxPC-3 tumors; day 40, erlotinib 50 PO",85.8%
same,% T/C on day 15,Hs746T tumors; [1],106.6%
same,% T/C on day 19,Hs746T tumors; [1],55.8%
same,% T/C on day 22,Hs746T tumors; [1],60.9%
same,% T/C on day 26,Hs746T tumors; [1],54.2%
same,% T/C on day 29,Hs746T tumors; [1],58.6%
same,% T/C on day 33,Hs746T tumors; [1],80.8%
same,% Inhibition,"Hs746T tumors; day 15, PM00104 0.9 and doxorubicin 6 mg/kg/day",−6.6%
same,% Inhibition,"Hs746T tumors; day 15, PM00104 0.9 and irinotecan 20 mg/kg/day",−6.6%
same,% Inhibition,"Hs746T tumors; day 15, mg/kg/day: PM00104 0.90 IV, 5-FU 50 at DPI 15 and 100 at DPI 22 & 29 IP",−6.6%
same,% Inhibition,"Hs746T tumors; day 19, PM00104 0.9 and doxorubicin 6 mg/kg/day",44.2%
same,% Inhibition,"Hs746T tumors; day 19, PM00104 0.9 and irinotecan 20 mg/kg/day",44.2%
same,% Inhibition,"Hs746T tumors; day 19, mg/kg/day: PM00104 0.90 IV, 5-FU 50 at DPI 15 and 100 at DPI 22 & 29 IP",44.2%
same,% Inhibition,"Hs746T tumors; day 22, PM00104 0.9 and doxorubicin 6 mg/kg/day",39.1%
same,% Inhibition,"Hs746T tumors; day 22, PM00104 0.9 and irinotecan 20 mg/kg/day",39.1%
same,% Inhibition,"Hs746T tumors; day 22, mg/kg/day: PM00104 0.90 IV, 5-FU 50 at DPI 15 and 100 at DPI 22 & 29 IP",39.1%
same,% Inhibition,"Hs746T tumors; day 26, PM00104 0.9 and doxorubicin 6 mg/kg/day",45.8%
same,% Inhibition,"Hs746T tumors; day 26, PM00104 0.9 and irinotecan 20 mg/kg/day",45.8%
same,% Inhibition,"Hs746T tumors; day 26, mg/kg/day: PM00104 0.90 IV, 5-FU 50 at DPI 15 and 100 at DPI 22 & 29 IP",45.8%
same,% Inhibition,"Hs746T tumors; day 29, PM00104 0.9 and doxorubicin 6 mg/kg/day",41.4%
same,% Inhibition,"Hs746T tumors; day 29, PM00104 0.9 and irinotecan 20 mg/kg/day",41.4%
same,% Inhibition,"Hs746T tumors; day 29, mg/kg/day: PM00104 0.90 IV, 5-FU 50 at DPI 15 and 100 at DPI 22 & 29 IP",41.4%
same,% Inhibition,"Hs746T tumors; day 33, PM00104 0.9 and doxorubicin 6 mg/kg/day",19.2%
